The values that follow come from patent publication US10758534B2 (Vertex Pharmaceuticals Incorporated, priority 2014, dated 2020).

For the assay, the target named is T1, F508del (Homo sapiens, UniProt P13569, DEL508-508).
T1 construct: expressed in transfected cells
Nature of the assay: Protocol 1: membrane potential optical assay (FLIPR III, voltage sensing dye), identification of potentiator compounds. It counts as cell-based. The note with it: Table 3, compounds of Table 1. In short, it runs like this:
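Mouse NIH 3T3 fibroblasts stably expressing F508del, temperature-corrected at 27 °C for 24 h, pretreated with compound, then loaded with voltage-sensing redistribution dye. Forskolin was added in a single step with a chloride gradient (chloride-free gluconate bath; Bath Solution #1 HEPES pH 7.4). Membrane-potential fluorescence read on FLIPR III.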

SMILES strings stand for the structures.

T1 sequence (P13569 with tags, fused parts or gaps DEL508-508): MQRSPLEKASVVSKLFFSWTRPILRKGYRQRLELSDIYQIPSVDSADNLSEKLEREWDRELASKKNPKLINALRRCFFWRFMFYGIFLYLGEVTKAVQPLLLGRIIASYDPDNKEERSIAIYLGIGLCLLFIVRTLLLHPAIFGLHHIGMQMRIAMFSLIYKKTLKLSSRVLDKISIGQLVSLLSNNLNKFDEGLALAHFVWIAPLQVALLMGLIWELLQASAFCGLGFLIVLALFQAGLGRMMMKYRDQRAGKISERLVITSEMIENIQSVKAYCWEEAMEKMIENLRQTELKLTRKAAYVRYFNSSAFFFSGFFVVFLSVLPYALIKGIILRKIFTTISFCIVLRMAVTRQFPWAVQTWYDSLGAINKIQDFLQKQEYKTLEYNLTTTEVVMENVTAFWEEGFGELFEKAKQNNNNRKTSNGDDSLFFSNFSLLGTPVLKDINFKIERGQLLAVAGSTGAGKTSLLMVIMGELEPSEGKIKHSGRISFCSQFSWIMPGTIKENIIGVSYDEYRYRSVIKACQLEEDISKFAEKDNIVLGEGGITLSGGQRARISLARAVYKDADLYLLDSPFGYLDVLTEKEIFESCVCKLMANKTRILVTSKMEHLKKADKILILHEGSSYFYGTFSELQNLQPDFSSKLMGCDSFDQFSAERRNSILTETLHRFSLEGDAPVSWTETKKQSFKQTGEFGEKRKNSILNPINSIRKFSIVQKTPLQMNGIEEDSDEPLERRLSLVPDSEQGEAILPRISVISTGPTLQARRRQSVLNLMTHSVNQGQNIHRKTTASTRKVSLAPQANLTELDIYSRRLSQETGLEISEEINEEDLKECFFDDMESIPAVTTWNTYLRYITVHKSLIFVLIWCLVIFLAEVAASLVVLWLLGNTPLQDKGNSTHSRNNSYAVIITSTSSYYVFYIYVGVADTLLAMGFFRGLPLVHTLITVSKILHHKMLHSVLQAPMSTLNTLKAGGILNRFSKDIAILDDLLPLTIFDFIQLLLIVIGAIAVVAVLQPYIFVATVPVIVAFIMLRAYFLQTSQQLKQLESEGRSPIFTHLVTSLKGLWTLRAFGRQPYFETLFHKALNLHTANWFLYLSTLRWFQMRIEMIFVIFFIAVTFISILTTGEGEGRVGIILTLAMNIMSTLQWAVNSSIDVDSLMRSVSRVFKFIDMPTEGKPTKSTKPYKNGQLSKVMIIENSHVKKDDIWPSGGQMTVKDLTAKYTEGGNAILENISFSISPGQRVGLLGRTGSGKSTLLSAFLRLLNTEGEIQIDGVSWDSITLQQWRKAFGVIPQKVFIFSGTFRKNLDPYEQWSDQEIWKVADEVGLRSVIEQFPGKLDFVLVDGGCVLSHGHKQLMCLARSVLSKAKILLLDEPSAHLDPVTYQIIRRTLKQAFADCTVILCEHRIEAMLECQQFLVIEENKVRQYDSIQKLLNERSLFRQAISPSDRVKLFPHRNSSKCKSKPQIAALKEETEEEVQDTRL

`CC(C)COc1cc(F)cc(-c2ccc(C(=O)NS(=O)(=O)N3CCC(S(C)(=O)=O)C3)c(N3C[C@@H](C)CC3(C)C)n2)c1` (stereo partly drawn) [Compound 1560, 6-(3-fluoro-5-isobutoxy-phenyl)-N-(3-methylsulfonylpyrrolidin-1-yl)sulfonyl-2-[(4S)-2,2,4-trimethylpyrrolidin-1-yl]pyridine-3-carboxamide]: the EC30 result is on record as “+++ (“+++” means <3 uM)”.
As for `COc1ccc(OC)c(-c2ccc(C(=O)NS(=O)(=O)c3ccc[nH]c3=O)c(N3C[C@@H](C)CC3(C)C)n2)c1` [Compound 1752, 6-(2,5-dimethoxyphenyl)-N-[(2-oxo-1H-pyridin-3-yl)sulfonyl]-2-[(4S)-2,2,4-trimethylpyrrolidin-1-yl]pyridine-3-carboxamide], the entry is “++ (“++” means between 3 uM and 10 uM)”; as for `CC(C)Oc1ccc(-c2ccc(C(=O)NS(=O)(=O)c3ccc[nH]c3=O)c(N3C[C@@H](C)CC3(C)C)n2)cc1` [Compound 1774, 6-(4-isopropoxyphenyl)-N-[(2-oxo-1H-pyridin-3-yl)sulfonyl]-2-[(4S)-2,2,4-trimethylpyrrolidin-1-yl]pyridine-3-carboxamide], “+++ (“+++” means <3 uM)”.
As to `C[C@@H]1CN(c2nc(C#N)ccc2C(=O)NS(=O)(=O)c2cccc(N)n2)C(C)(C)C1` [Compound 1564, N-[(6-amino-2-pyridyl)sulfonyl]-6-cyano-2-[(4S)-2,2,4-trimethylpyrrolidin-1-yl]pyridine-3-carboxamide], the EC30 entry is “++ (“++” means between 3 uM and 10 uM)”.
With `CC(C)COc1cc(F)cc(-c2ccc(C(=O)NS(=O)(=O)c3cccc(N)n3)c(OC3(Cc4ccccc4)CCC3)n2)c1` [Compound 1479, N-[(6-amino-2-pyridyl)sulfonyl]-2-(1-benzylcyclobutoxy)-6-(3-fluoro-5-isobutoxy-phenyl)pyridine-3-carboxamide], the EC30 result is given as “+++ (“+++” means <3 uM)”.
As for `CCOc1ccc(-c2ccc(C(=O)NS(=O)(=O)c3nccnc3N)c(-c3ccc(C)cc3)n2)cc1` [Compound 819, N-(3-aminopyrazin-2-yl)sulfonyl-6-(4-ethoxyphenyl)-2-(p-tolyl)pyridine-3-carboxamide], the entry is “+ (“+” means greater than 10 uM)”.
For `COc1ccc(F)cc1-c1ccc(C(=O)NS(=O)(=O)c2ccc[nH]c2=O)c(Oc2c(C)cc(C)cc2C)n1` [Compound 1151, 6-(5-fluoro-2-methoxy-phenyl)-N-[(2-oxo-1H-pyridin-3-yl)sulfonyl]-2-(2,4,6-trimethylphenoxy)pyridine-3-carboxamide], the EC30 entry was “++ (“++” means between 3 uM and 10 uM)”.
On to `COc1ccc(COc2cccc(S(=O)(=O)NC(=O)c3cccnc3N3CC(C)CC3(C)C)n2)cc1Cl` (stereo not drawn) [Compound 1778, N—[[6-[(3-chloro-4-methoxy-phenyl)methoxy]-2-pyridyl]sulfonyl]-2-(2,2,4-trimethylpyrrolidin-1-yl)pyridine-3-carboxamide], for which the EC30 entry is “+++ (“+++” means <3 uM)”.
The value for `CC1CN(c2ncccc2C(=O)NS(=O)(=O)c2cccc(N(C)Cc3ccccc3)n2)C(C)(C)C1` (stereo not drawn) [Compound 1827, N—[[6-[benzyl(methyl)amino]-2-pyridyl]sulfonyl]-2-(2,2,4-trimethylpyrrolidin-1-yl)pyridine-3-carboxamide] was “+++ (“+++” means <3 uM)”; that for `Cc1cc(C)c(Oc2nc(C3=CCCCCC3)ccc2C(=O)NS(=O)(=O)c2cccc(N)n2)c(C)c1` [Compound 1513, N-[(6-amino-2-pyridyl)sulfonyl]-6-(cyclohepten-1-yl)-2-(2,4,6-trimethylphenoxy)pyridine-3-carboxamide] was “+++ (“+++” means <3 uM)”.
For `Cc1cc(OCC(C)(C)C)ncc1-c1ccc(C(=O)NS(=O)(=O)c2cccc(N)n2)c(N2CC(C)CC2(C)C)n1` (stereo not drawn) [Compound 1160, N-[(6-amino-2-pyridyl)sulfonyl]-6-[6-(2,2-dimethylpropoxy)-4-methyl-3-pyridyl]-2-(2,2,4-trimethylpyrrolidin-1-yl)pyridine-3-carboxamide], the EC30 result was “+++ (“+++” means <3 uM)”.
As for `CC(C)COc1cc(F)cc(-c2ccc(C(=O)NS(=O)(=O)c3cccc(N)n3)c(N3CCC(C)(C)CC3)n2)c1` [Compound 1279, N-[(6-amino-2-pyridyl)sulfonyl]-2-(4,4-dimethyl-1-piperidyl)-6-(3-fluoro-5-isobutoxy-phenyl)pyridine-3-carboxamide], the entry is “+++ (“+++” means <3 uM)”; as for `CC[C@@H]1CN(c2nc(-c3cc(F)cc(OCC(C)C)c3)ccc2C(=O)NS(=O)(=O)c2cccc(N)n2)C(C)(C)C1` [Compound 1612, N-[(6-amino-2-pyridyl)sulfonyl]-2-[(4S)-4-ethyl-2,2-dimethyl-pyrrolidin-1-yl]-6-(3-fluoro-5-isobutoxy-phenyl)pyridine-3-carboxamide], “+++ (“+++” means <3 uM)”.
As for `COc1ccc(C)cc1-c1ccc(C(=O)NS(=O)(=O)c2cccc(N)n2)c(Oc2c(C)cc(C)cc2C)n1` [Compound 1320, N-[(6-amino-2-pyridyl)sulfonyl]-6-(2-methoxy-5-methyl-phenyl)-2-(2,4,6-trimethylphenoxy)pyridine-3-carboxamide], the entry is “+++ (“+++” means <3 uM)”.
As to `CC(C)COc1cc(F)cc(-c2ccc(C(=O)NS(=O)(=O)c3cccc(N)n3)c(OCCc3cccnc3)n2)c1` [Compound 1654, N-[(6-amino-2-pyridyl)sulfonyl]-6-(3-fluoro-5-isobutoxy-phenyl)-2-[2-(3-pyridyl)ethoxy]pyridine-3-carboxamide], the EC30 entry is reported as “+++ (“+++” means <3 uM)”.
For `C[C@@H]1CN(c2nc(N3C[C@@H](C)CC3(C)C)c(C(=O)NS(=O)(=O)c3cccc(N)n3)cc2F)C(C)(C)C1` [Compound 1673, N-[(6-amino-2-pyridyl)sulfonyl]-5-fluoro-2,6-bis[(4S)-2,2,4-trimethylpyrrolidin-1-yl]pyridine-3-carboxamide], the EC30 entry was “+++ (“+++” means <3 uM)”.
As to `CCOc1cc(C)cc(-c2ccc(C(=O)NS(=O)(=O)c3cccc(N)n3)c(N3C[C@@H](C)CC3(C)C)n2)c1` [Compound 1488, N-[(6-amino-2-pyridyl)sulfonyl]-6-(3-ethoxy-5-methyl-phenyl)-2-[(4S)-2,2,4-trimethylpyrrolidin-1-yl]pyridine-3-carboxamide], the EC30 result is on record as “+++ (“+++” means <3 uM)”.
`CC1CN(c2ncccc2C(=O)NS(=O)(=O)c2cccc(Oc3ccccc3C#N)n2)C(C)(C)C1` (stereo not drawn) [Compound 1720, N—[[6-(2-cyanophenoxy)-2-pyridyl]sulfonyl]-2-(2,2,4-trimethylpyrrolidin-1-yl)pyridine-3-carboxamide]: the EC30 entry is “+++ (“+++” means <3 uM)”.
As for `Cc1cccc(C)c1Cn1nc(C(C)(C)C)cc1C(=O)NS(=O)(=O)c1ccco1` [Compound 1468, 5-tert-butyl-2-[(2,6-dimethylphenyl)methyl]-N-(2-furylsulfonyl)pyrazole-3-carboxamide], the entry is “+++ (“+++” means <3 uM)”; as for `CC(C)COc1cc(F)cc(-c2ccc(C(=O)NS(=O)(=O)c3cccc(N)n3)c(N3CCC4(CCC4)CC3)n2)c1` [Compound 1303, N-[(6-amino-2-pyridyl)sulfonyl]-2-(7-azaspiro[3.5]nonan-7-yl)-6-(3-fluoro-5-isobutoxy-phenyl)pyridine-3-carboxamide], “+++ (“+++” means <3 uM)”.
For the molecule `CC(C)=Cc1ccc(C(=O)NS(=O)(=O)c2cccc(N)n2)c(N2C[C@@H](C)CC2(C)C)n1` [Compound 1683, N-[(6-amino-2-pyridyl)sulfonyl]-6-(2-methylprop-1-enyl)-2-[(4S)-2,2,4-trimethylpyrrolidin-1-yl]pyridine-3-carboxamide], the EC30 entry is “+++ (“+++” means <3 uM)”.
As for `CC(C)COc1cc(F)cc(-c2ccc(C(=O)NS(=O)(=O)c3cccc(N)n3)c(N3CC(C)(C)OCC3(C)C)n2)c1` [Compound 1675, N-[(6-amino-2-pyridyl)sulfonyl]-6-(3-fluoro-5-isobutoxy-phenyl)-2-(2,2,5,5-tetramethylmorpholin-4-yl)pyridine-3-carboxamide], the EC30 result was “++ (“++” means between 3 uM and 10 uM)”.
With `CC1CN(c2nc(-c3cccc(NC(C)C)n3)ccc2C(=O)NS(=O)(=O)c2cccc(N)n2)C(C)(C)C1` (stereo not drawn) [Compound 951, N-[(6-amino-2-pyridyl)sulfonyl]-6-[6-(isopropylamino)-2-pyridyl]-2-(2,2,4-trimethylpyrrolidin-1-yl)pyridine-3-carboxamide], the EC30 entry is on record as “+++ (“+++” means <3 uM)”.
As for `C[C@@H]1CN(c2nc(C3=CN(C(=O)OC(C)(C)C)CC3)ccc2C(=O)NS(=O)(=O)c2cccc(N)n2)C(C)(C)C1` [Compound 1684, tert-butyl 4-[5-[(6-amino-2-pyridyl)sulfonylcarbamoyl]-6-[(4S)-2,2,4-trimethylpyrrolidin-1-yl]-2-pyridyl]-2,3-dihydropyrrole-1-carboxylate], the entry is “+++ (“+++” means <3 uM)”; as for `CCOc1cccc2c1CN(Cc1ccc(Cl)nc1)C2(C)C(=O)NS(=O)(=O)c1cccc(N)n1` (stereo not drawn) [Compound 1565, N-[(6-amino-2-pyridyl)sulfonyl]-2-[(6-chloro-3-pyridyl)methyl]-4-ethoxy-1-methyl-isoindoline-1-carboxamide], “+ (“+” means greater than 10 uM)”.
The value for `CC(C)COc1cc(F)cc(-c2ccc(C(=O)NS(=O)(=O)c3cccc(N)n3)c(N3CCC(C)(C)C3C)n2)c1` (stereo not drawn) [Compound 1156, N-[(6-amino-2-pyridyl)sulfonyl]-6-(3-fluoro-5-isobutoxy-phenyl)-2-(2,3,3-trimethylpyrrolidin-1-yl)pyridine-3-carboxamide] was “+++ (“+++” means <3 uM)”; that for `C[C@@H]1CN(c2nc(-c3cccc(F)c3)ccc2C(=O)NS(=O)(=O)c2cccnc2N)C(C)(C)C1` [Compound 1873, N-[(2-amino-3-pyridyl)sulfonyl]-6-(3-fluorophenyl)-2-[(4S)-2,2,4-trimethylpyrrolidin-1-yl]pyridine-3-carboxamide] was “+++ (“+++” means <3 uM)”.
